Test results reported in the supplement of paper PMC5908809.

Experiments:
[1] = tested on: normal NK cells expanded with K562-aAPC; assay: drug sensitivity score (DSS) (DSS units); higher = more sensitive; extreme values may be limits of the assay; conditions: 72 h; IL-2 2.5 ng/mL
Protocol: (§1)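 Drug sensitivity and resistance testing on K562-aAPC-expanded normal NK cells: 5 concentrations (10-fold steps over a 10,000-fold range), 72 h at 37 °C, viability by CellTiter-Glo normalised to DMSO and benzethonium chloride controls; DSS from the fitted curve.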

[2] = tested on: KHYG-1 (IL-2 2.5 ng/mL); assay: as above; conditions: 72 h
[3] = tested on: normal primary NK cells, pool 1 (3 donors) (IL-2 2.5 ng/mL); assay: as above; conditions: 72 h
[4] = tested on: NK-YS (IL-2 2.5 ng/mL); assay: as above; conditions: 72 h
[5] = tested on: normal primary NK cells, pool 3 (3 donors) (IL-2 2.5 ng/mL); assay: as above; conditions: 72 h
[6] = tested on: normal primary NK cells, pool 1 (3 donors), resting (IL-2 0 ng/mL); assay: as above; conditions: 72 h
[7] = tested on: SNK-6 (IL-2 2.5 ng/mL); assay: as above; conditions: 72 h
[8] = tested on: NK-92 (IL-2 2.5 ng/mL); assay: as above; conditions: 72 h
[9] = tested on: DERL-7 (IL-2 2.5 ng/mL); assay: as above; conditions: 72 h
[10] = tested on: KAI3 (IL-2 2.5 ng/mL); assay: as above; conditions: 72 h
[11] = tested on: normal primary NK cells, pool 2 (3 donors) (IL-2 2.5 ng/mL); assay: as above; conditions: 72 h
[12] = tested on: NKL (IL-2 2.5 ng/mL); assay: as above; conditions: 72 h
[13] = tested on: IMC-1 (IL-2 20 ng/mL); assay: as above; conditions: 72 h
[14] = tested on: YT (IL-2 2.5 ng/mL); assay: as above; conditions: 72 h
[15] = tested on: KHYG-1 (IL-2 2.5 ng/mL); assay: percent inhibition of viability; higher = more inhibition; conditions: 72 h
[16] = tested on: normal primary NK cells, pool 1 (3 donors) (IL-2 2.5 ng/mL); assay: as above; conditions: 72 h
[17] = tested on: NK-YS (IL-2 2.5 ng/mL); assay: as above; conditions: 72 h
[18] = tested on: normal primary NK cells, pool 3 (3 donors) (IL-2 2.5 ng/mL); assay: as above; conditions: 72 h
[19] = tested on: normal primary NK cells, pool 1 (3 donors), resting (IL-2 0 ng/mL); assay: as above; conditions: 72 h
[20] = tested on: SNK-6 (IL-2 2.5 ng/mL); assay: as above; conditions: 72 h
[21] = tested on: NK-92 (IL-2 2.5 ng/mL); assay: as above; conditions: 72 h
[22] = tested on: DERL-7 (IL-2 2.5 ng/mL); assay: as above; conditions: 72 h
[23] = tested on: KAI3 (IL-2 2.5 ng/mL); assay: as above; conditions: 72 h
[24] = tested on: normal primary NK cells, pool 2 (3 donors) (IL-2 2.5 ng/mL); assay: as above; conditions: 72 h
[25] = tested on: NKL (IL-2 2.5 ng/mL); assay: as above; conditions: 72 h
[26] = tested on: IMC-1 (IL-2 20 ng/mL); assay: as above; conditions: 72 h
[27] = tested on: YT (IL-2 2.5 ng/mL); assay: as above; conditions: 72 h
[28] = tested on: normal NK cells expanded with K562-aAPC; assay: as above; conditions: 72 h, IL-2 2.5 ng/mL
Protocol: as §1

CC[C@H](CO)Nc1nc(NCc2ccccc2)c2ncn(C(C)C)c2n1 [Seliciclib] (max concentration tested 10000 nM)
Conditions	drug sensitivity score
[1]	1.71
[2]	0.62
[3]	2.2
[4]	3.07
[5]	0.41
[6]	2.43
[7]	0.43
[8]	4.81
[9]	1.62
[10]	4.72
[11]	1.7
[12]	3.69
[13]	0.28
[14]	4.39

percent inhibition of viability [%]
Conditions	1 nM	10 nM	100 nM	1000 nM	10000 nM
[15]	4.31	-8.69	-4.34	1.22	18.6
[16]	-1.6	-3.91	11.5	8.66	32.8
[17]	8.26	-2	-1.62	7.11	38.7
[18]	0.36	1.61	11.3	-0.47	17.9
[19]	-1.46	-6.05	15.1	7.69	9.97
[20]	-14.8	-13.5	-3.42	-23.2	23.9
[21]	-2.72	-1.58	-0.03	23.2	39.9
[22]	-1.96	7.05	6.82	0.8	33.1
[23]	-1.01	-9.53	-1.56	6.38	67.1
[24]	-12.7	-4.83	5.97	1.18	33.5
[25]	-8.83	-15.7	-16.8	10.3	41.6
[26]	-6.54	-8.7	-1.13	2.41	13.2
[27]	2.72	-5.9	-1.61	9.31	53.2
[28]	-5.19	-1.17	-5.63	3.89	27.1

O=C(O)c1ccc2c(c1)nc(Nc1cccc(Cl)c1)c1ccncc12 [Silmitasertib] (max concentration tested 10000 nM)
Conditions	drug sensitivity score
[1]	8.41
[2]	7.83
[3]	7.64
[4]	6.72
[5]	5.54
[6]	2.91
[7]	4.04
[8]	4.09
[9]	7.04
[10]	7.33
[11]	5.68
[12]	6.45
[13]	2.35
[14]	7.24

percent inhibition of viability [%]
Conditions	1 nM	10 nM	100 nM	1000 nM	10000 nM
[15]	2.32	3.89	1.97	14.4	98.1
[16]	-9.41	-7.07	-7.39	18.1	85.6
[17]	5.01	1.7	1.66	10.8	88.7
[18]	-4.66	-2.89	-4.84	9.91	70.3
[19]	-25.1	-31.8	-43.9	-9.05	63.9
[20]	4.5	3.13	-1.8	-10.8	85.2
[21]	6.03	10.9	-12.3	-16.9	90.2
[22]	-3.79	0.67	-2.32	10.4	96
[23]	4.28	8.25	8.8	16.1	84.8
[24]	-8.83	-6.36	2.09	8.72	76.5
[25]	11.5	10.7	2.41	13.4	76.3
[26]	7.09	6.12	5.81	-2.16	48.4
[27]	5.21	5.15	4.79	17.7	79.9
[28]	6.72	1.13	2.51	24.6	85.7

CO[C@H]1C[C@@H]2CC[C@@H](C)[C@@](O)(O2)C(=O)C(=O)N2CCCC[C@H]2C(=O)O[C@H]([C@H](C)C[C@@H]2CC[C@@H](O)[C@H](OC)C2)CC(=O)[C@H](C)/C=C(\C)[C@@H](O)[C@@H](OC)C(=O)[C@H](C)C[C@H](C)/C=C/C=C/C=C/1C [Sirolimus] (max concentration tested 100 nM)
Conditions	drug sensitivity score
[1]	1.68
[2]	9.94
[3]	0.01
[4]	13.8
[5]	0
[6]	0.29
[7]	13.6
[8]	4.93
[9]	8.02
[10]	10
[11]	3.82
[12]	19.3
[13]	0
[14]	10.3

percent inhibition of viability [%]
Conditions	0.01 nM	0.1 nM	1 nM	10 nM	100 nM
[15]	-2.67	2.99	5.43	47.1	73.8
[16]	0.77	-8.98	3.92	5.36	11.1
[17]	-0.35	1.64	29.4	54.6	58.5
[18]	-9.48	-6.09	3.92	6.87	10.3
[19]	1.62	-12	3.7	1.9	13.7
[20]	7.11	11.7	26.8	58	53.6
[21]	-4.22	6.09	10.4	22	41.1
[22]	1.91	1.51	7.44	38.3	55.7
[23]	-2.33	-1.67	15.9	44.7	54.9
[24]	-8.36	2	15.3	16.1	24.9
[25]	10.2	24.2	45.2	58.8	68.7
[26]	-3.21	1.18	-3.68	-15.7	-35.8
[27]	-0.6	3.68	8.62	48.9	50
[28]	-3.63	-1.36	3.81	13.8	18.7
